{
  "source": "patent US10350262B2",
  "about": "“MCJ agonists and uses therefor” (priority 2015, dated 2019)",
  "key": {"Molm13 cells [1]": {"tested_on": "Molm13 cells", "assay": "Viable cell number of Molm13 AML cells", "format": "cell-based", "conditions": "3 days"}, "MCF7/siMCJ cells": {"tested_on": "MCF7/siMCJ cells", "assay": "Confocal microscopy for doxorubicin accumulation", "format": "cell-based, human", "conditions": "oligomycin 5 μM with doxorubicin 3 μM, 4 h; vs doxorubicin alone", "method": "Confocal microscopy for doxorubicin accumulation. MCF7/siMCJ cells were seeded on BD Biocoat coverslips (BD Biosciences, Bedford, Mass.) the day before the treatment. At 20 h, oligomycin (5 μM) or medium was added to the cell. After 3 h, doxorubicin (3 μM) was added and cells were further incubated for 4 h. Cells were washed with PBS and fixed in 3.7% paraformaldehyde. […] For nuclear staining, DAPI (Molecular Probes, Eugene, Oreg.) was used. Cells were visualized by confocal microscopy (Zeiss LSM 510 META Confocal Laser Scanning Imaging System, Carl Ziess Microimaging Inc, Thronwood, N.Y.). The term: MCF7/siMCJ and siMCJ/MCF7 is used interchangeably herein. Experiments were performed to determine whether reducing mitochondrial respiration in cancer cells restores the cells' sensitivity to chemotherapeutic agents. […] MCF7/siMCJ cells were treated with doxorubicin alone or doxorubicin and oligomycin (an inhibitor of Complex V/ATP synthase) at a concentration of 5 μM for 4 h. Doxorubicin intrinsic fluorescence in the cells was viewed by confocal microscopy. The DAPI dye was used as a nuclear maker."}, "MCF7/ADR cells [2]": {"tested_on": "MCF7/ADR cells", "assay": "Viable cell count of MCF7/ADR cells (Trypan blue)", "format": "cell-based, human", "method": "(§1) FIG. 15A provides results of Western blot analysis for MCJ in MCF7 cells and MCF7/ADR (ADR) cells. Actin was used as loading control. […] Viable cells were counted 2 days later.\nFIG. 16A-B provides graphs showing response to MCJ agonists. […] Cells were harvested 2 days later and viable cells were counted. […] Mice were harvested at day 4. The size of a tumor over time was determined by caliper measurements, and is represented as a percentage relative to the initial size prior to the treatment. p<0.05 as determined by a paired t-test.\n(§2) Cell Culture. MCF7 and MCF7/ADR cells were a kind gift from Dr. Ken Cowan (National Cancer Institute, Bethesda, Md.). MCF7/siMCJ cells were generated by stable transfection with a plasmid expressing a shRNA for MCJ (siMCJ) as described in Hatle, K. M., et al., Mol Cell Biol 27, 2952-2966 (2007). All cells were maintained at 37 C, 5% CO2 in RPMI-1640 (Life technologies, Inc., Gaithersburg, Md.) containing 5% FBS.\n(§3) Cell count. Cells were trypsinized, washed, and resuspended in medium. Number of viable cells was measured by counting using Trypan blue dye to exclude dead cells (visualized as blue).\n(§4) Doxorubicin and peptides treatment in vitro. Doxorubicin (Sigma-Aldrich) was used at 3 μM final concentration. The three different peptides described in the examples (SEQ ID NO: 2, 18 or 6) were resuspended at 10 mM stock concentration in PBS. The peptides were used a different concentration as indicated for each example (1, 10, or 50 μM). Cells were plated the day prior the treatment (18-20 h prior to the treatment). For treatments with peptides only, peptides were added to the plates at the indicated concentrations, and after 2 or 3 days (as indicated for each example) cells were trypsinized, resuspended, and counted. For the treatment with doxorubicin and peptides, cells were pretreated with the corresponding peptide for 4 h prior to adding doxorubicin.\nMCF7/ADR cells were incubated (using standard procedures) for three days in media alone or in media plus three different MCJ based polypeptides each at a concentration of 50 μM in media. The cells of set one were incubated in media and served as a control set. The cells of set two were incubated in media that included a 50 μM concentration of a MCJ polypeptide without a targeting agent polypeptide. The amino acid sequence of the N-MCJ polypeptide without a targeting agent polypeptide was […] (SEQ ID NO:2). The cells of set three were incubated in media that included a 50 μM concentration of a TAT-N-MCJ polypeptide. The amino acid sequence of the TAT-N-MCJ polypeptide was: […] (SEQ ID NO:18). […]"}, "MCF7 cells": {"tested_on": "MCF7 cells", "assay": "Viable cell count of MCF7 cells (Trypan blue)", "format": "cell-based, human", "conditions": "25 μM, 2 days", "from_the_text": "as §1, §2, §3, §4\nMCF7 cells and MCF7/ADR cells were incubated (using standard procedures) for two days in media alone or in media that included different concentrations of the TAT-N-MCS-MTS polypeptide having the amino acid sequence set forth as: […]"}, "MCF7/ADR cells [3]": {"tested_on": "MCF7/ADR cells", "assay": "Seahorse MitoStress assay, oxygen consumption rate (OCR)", "format": "cell-based, human", "method": "FIG. 14A-C provides graphs showing effect of MCJ agonist polypeptides on OCR and respiratory capacity of cells. […] Cells pretreated with medium alone (medium), TAT-N-MCJ-mts peptide (TAT peptide) (50 μM) (FIG. 14A) or MITO-N-MCJ peptide (Mito peptide) (25 μM) (FIG. 14B) for the last 9 h prior to the MitoStress assay as described elsewhere herein. Standard flow chart for the treatments as recommended by the manufacturer (Seahorse Bioscience, Billerica, Mass.) was used: oligomycin (O), FCCP (F) and rotenone and antimycin (R+A). […] Oligomycin was replaced by vehicle (buffer) or MITO-N-MCJ peptide.\nHuman breast cancer cell lines MCF7 cells with siRNA-mediated knockdown of MCJ (MCF7/siMCJ cells) have increased Complex I activity. Experiments were performed to examine the effect of MCJ on mitochondrial respiration using the Seahorse X24 analyzer and the MitoStress assay (used in examples herein according to manufacturer's protocols) that measures mitochondrial oxygen consumption rate (OCR), a well-accepted proxy for mitochondrial respiration (Seahorse Bioscience, North Billerica, Mass.). […] In addition, maximum respiratory capacity (determined after addition of the mitochondrial uncoupler FCCP) was also drastically higher in MCF7/siMCJ cells (FIG. 12A). Moreover, Seahorse MitoStress analysis of OCR in primary mammary tumor cells from MMTV-Py mice [Guy, C.\nThe agonist polypeptides were tested to determine whether they would restore particular MCJ functions and the effect of the agonist polypeptides in mitochondrial respiration was examined. […] OCR was determined by the Seahorse analyzer in MCF7/ADR cells and MCF7/ADR cells that were pretreated with the TAT-N-MCJ-mts peptide for 9 h.\nAssays were performed to examine the effect of MITO-N-MCJ peptide on mitochondrial respiration when added directly on cells ongoing Seahorse mito-stress analysis. In this case, OCR was first measured at the basal level and then either vehicle (Seahorse buffer) or the MITO-N-MCJ peptide was added in one of the ports from Seahorse. […]"}, "Molm13 cells [4]": {"tested_on": "Molm13 cells", "assay": "Mitochondrial membrane potential by TMRE staining, flow cytometry", "format": "cell-based", "conditions": "22 h", "method": "(§5) FIG. 17A-D provides graphs of results showing MCJ agonist inhibition of AML. FIG. 17A-B show results when Molm13 cells (10^4 cells) were incubated in the presence of medium, TAT-N-MCJ-mts peptide (TAT) (25 μM), MITO-N-MCJ peptide (25 μM), AC220 (2 nM) or the combination of the peptides with AC220. Numbers of viable cells was measured after 3 days. […] The percentage of live cells negative for TMRE (TMREneg) is shown. […] The percentage of live PY1^+ cells is shown.\n(§6) Experiments were also performed to assess the effect of MCJ agonists on mitochondrial membrane potential by staining with the TMRE dye. Given the more modest effects observed for TAT-N-MCJ-mts (FIG. 17A-B), 50 μM of this peptide was used in the experiments. […] AML cells are sensitive to the levels of reactive oxygen species (ROS), which are primarily generated in mitochondria as a result of electron leakage from the ETC. It was previously shown that MCJ can interfere with the formation of ETC respiratory supercomplexes [Hatle, K., et al., (2013) Mol Cell boil 33:2302-2314] that are formed to facilitate electron transport between complexes and minimize electron leakage [see Acin-Perez, R. et al., (2008) Mol Cell 32:529-539 and Lapuente-Brun, E. et al., (2013) Science 340:1567-1570]. […] The effect of the MCJ agonists was already observed after 5 h of treatment. […]"}, "Molm13 cells [5]": {"tested_on": "Molm13 cells", "assay": "Mitochondrial ROS (mROS) by PY1 staining, flow cytometry", "format": "cell-based", "conditions": "22 h", "method": "as §5, §6"}, "MCF7/ADR cells [6]": {"tested_on": "MCF7/ADR cells", "assay": "Bright field microscopy of MCF7/ADR cells", "format": "cell-based, human", "conditions": "50 μM, two days; relative to medium only", "method": "FIG. 3 provides photomicrographic images of MCF7/ADR cells that were incubated for two days in column (1) media alone; column (2) media that included a 50 μM concentration of an N-MCJ polypeptide (SEQ ID NO:2); column (3) media that included a 50 μM concentration of the TAT-N-MCJ polypeptide (SEQ ID NO:18); and column (4) media that included a 50 μM concentration of the TAT-N-MCJ-MTS polypeptide (SEQ ID NO:6).\nBright Field Microscopy. Live cells were imaged at an inverted bright field microscope (Leica Microsystems). 400× magnification was used."}, "[7]": {"conditions": "25 μM in combination with AC220 2 nM"}},
  "note": "Non-standard residues stand in square brackets, D forms with d. No end group written: not given here. Cha = N[C@@H](CC1CCCCC1)C(=O)O",
  "data": [
    {"compound": "CC(C)(C)c1cc(NC(=O)Nc2ccc(-c3cn4c(n3)sc3cc(OCCN5CCOCC5)ccc34)cc2)no1", "note": "[AC220, reference compound]", "values": [
      {"measurement": "viability (number of viable cells)", "setting": "Molm13 cells [1]; AC220 2 nM", "value": "effective at inducing Molm13 cell death"}
    ]},
    {"compound": "CC[C@H]1/C=C/C=C/C[C@@H](C)[C@H](O)[C@@](C)(O)C(=O)[C@@H](C)[C@H](O)[C@@H](C)C(=O)[C@@H](C)[C@H](O)[C@@H](C)/C=C/C(=O)O[C@@H]2[C@H](C)[C@H](CC1)O[C@]1(CC[C@H](C)[C@H](C[C@@H](C)O)O1)[C@H]2C", "note": "[oligomycin]", "values": [
      {"measurement": "doxorubicin accumulation (intrinsic fluorescence, nucleus)", "setting": "MCF7/siMCJ cells", "value": "doxorubicin accumulation (in the nucleus) only in MCF7/siMCJ cells treated with doxorubicin and oligomycin"}
    ]},
    {"compound": "FxRFxKFxRFxKMAARGVIAPVGESLRYAEYL ([Cha]R[Cha]K[Cha]R[Cha]KMAARGVIAPVGESLRYAEYL) [MITO-N-MCJ, Fx is cyclohexylalanine]", "values": [
      {"measurement": "expansion of cells (viable cells)", "setting": "MCF7/ADR cells [2]; 25 μM, peptide by itself, 2 days", "value": "drastic effect in limiting the expansion of these resistant cells"},
      {"measurement": "efficacy relative to the TAT-N-MCJ peptide", "setting": "MCF7/ADR cells [2]; MITO-N-MCJ greater than TAT peptide", "value": "2-3 times"},
      {"measurement": "effect on viable cells", "setting": "MCF7 cells", "value": "neither of the two MCJ agonists had an effect on MCF7 cells"},
      {"measurement": "effect on OCR", "setting": "MCF7/ADR cells [3]; 25 μM, pretreated 9 h, compared with TAT-N-MCJ-mts", "value": "even more pronounced"},
      {"measurement": "mitochondrial respiration (OCR)", "setting": "MCF7/ADR cells [3]; peptide added directly during the assay, OCR measured during 180 min, vs vehicle", "value": "marked reduction of mitochondrial respiration"},
      {"measurement": "maximum respiratory capacity (after FCCP)", "setting": "MCF7/ADR cells [3]; peptide added directly during the assay, vs vehicle only", "value": "severely compromised"},
      {"measurement": "viability (number of viable cells)", "setting": "Molm13 cells [1]; peptide 25 μM alone", "value": "profound effect on Molm13 cells, leading to substantial cell death"},
      {"measurement": "cells refractory to AC220 (number of viable cells)", "setting": "Molm13 cells [1]; peptide 25 μM in combination with AC220 2 nM", "value": "effectively eliminated this resistant group"},
      {"measurement": "mitochondrial membrane potential (TMRE negative live cells)", "setting": "Molm13 cells [4]; [7]", "value": "the most remarkable effect"},
      {"measurement": "mitochondrial membrane potential (TMRE negative live cells)", "setting": "Molm13 cells [4]; 25 μM", "value": "caused a loss of mitochondrial membrane potential (TMRE negative cells) in a fraction of Molm13 cells"},
      {"measurement": "production of mROS (live PY1+ cells)", "setting": "Molm13 cells [5]; [7]", "value": "clearly synergized with AC220 to cause a massive production of mROS"},
      {"measurement": "production of mROS (live PY1+ cells)", "setting": "Molm13 cells [5]; 25 μM", "value": "could induce the production of mROS"}
    ]},
    {"compound": "MAARGVIAPVGESLRYAEYL (listed as Homo sapiens) [N-MCJ]", "values": [
      {"measurement": "proliferation / cells attached to the culture plate (photomicrographs)", "setting": "MCF7/ADR cells [6]", "value": "did not affect proliferation of the cells"}
    ]},
    {"compound": "YGKKRRQRRGMAARGVIAPVGESLRYAEYL [TAT-N-MCJ]", "values": [
      {"measurement": "expansion of cells (viable cells)", "setting": "MCF7/ADR cells [2]; control peptide lacking the mts", "value": "had no effect"},
      {"measurement": "proliferation / cells attached to the culture plate (photomicrographs)", "setting": "MCF7/ADR cells [6]", "value": "did not affect proliferation of the cells"}
    ]}
  ]
}
